Measurements from patent US8815845B2, “1,4-benzodiazepine-2,5-diones and related compounds with therapeutic properties” (The Regents of the University of Michigan, priority 2009, dated 2014).

How the values were obtained:
[1] = target: ROCK-II (h, amino acids 11-552) (Homo sapiens (Human), UniProt O75116); test: ROCK-II (h) inhibition assay; format: biochemical; conditions: read-out: ROCK2 IC50
Description: ROCK-II (h) Inhibition Assay:
In a final reaction volume of 25 μL, ROCK-II (h, amino acids 11-552) (5-10 mU) was incubated with 50 mM Tris pH 7.5, 0.1 mM EGTA, 30 [μM […], 10 mM magnesium acetate and γ-^32P-ATP] (specific activity approx. 500 cpm/pmol, concentration as required). The reaction was initiated by the addition of the MgATP mix. After incubation for 40 minutes at room temperature, the reaction was stopped by the addition of 5 μL of a 3% phosphoric acid solution. 10 μL of the reaction was then spotted onto a P30 filter-mat and washed three times for 5 minutes in 75 mM phosphoric acid and once in methanol prior to drying and scintillation counting.

[2] = target: ROCK-I (h, amino acids 17-535) (Homo sapiens (Human), UniProt Q13464); test: ROCK-I (h) inhibition assay; format: biochemical; conditions: read-out: ROCK1 IC50
Description: ROCK-I (h) Inhibition Assay:
In a final reaction volume of 25 μL, ROCK-I (h, amino acids 17-535) (5-10 mU) was incubated with 8 mM MOPS pH 7.0, 0.2 mM EDTA, 30 μM […], 10 mM magnesium acetate and [γ-^32P-ATP] (specific activity approx. 500 cpm/pmol, concentration as required). The reaction was initiated by the addition of the MgATP mix. After incubation for 40 minutes at room temperature, the reaction was stopped by the addition of 5 μL of a 3% phosphoric acid solution. 10 μL of the reaction was then spotted onto a P30 filtermat and washed three times for 5 minutes in 75 mM phosphoric acid and once in methanol prior to drying and scintillation counting.

Chain of ROCK-I (h, amino acids 17-535) (Q13464 17-535): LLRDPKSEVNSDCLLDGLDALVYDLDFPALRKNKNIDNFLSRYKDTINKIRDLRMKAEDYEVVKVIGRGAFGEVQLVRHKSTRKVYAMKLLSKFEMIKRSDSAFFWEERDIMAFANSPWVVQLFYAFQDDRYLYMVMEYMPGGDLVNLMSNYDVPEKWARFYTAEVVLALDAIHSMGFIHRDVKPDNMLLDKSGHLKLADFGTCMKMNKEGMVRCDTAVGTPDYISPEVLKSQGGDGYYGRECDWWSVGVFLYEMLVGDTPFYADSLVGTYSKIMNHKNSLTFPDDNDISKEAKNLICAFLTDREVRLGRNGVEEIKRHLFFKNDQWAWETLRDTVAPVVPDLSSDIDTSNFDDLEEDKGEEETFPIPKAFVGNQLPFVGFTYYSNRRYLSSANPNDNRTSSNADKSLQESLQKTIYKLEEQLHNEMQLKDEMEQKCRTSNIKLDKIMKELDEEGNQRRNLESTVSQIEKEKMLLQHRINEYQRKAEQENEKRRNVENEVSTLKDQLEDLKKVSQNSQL
Chain of ROCK-II (h, amino acids 11-552) (O75116 11-552): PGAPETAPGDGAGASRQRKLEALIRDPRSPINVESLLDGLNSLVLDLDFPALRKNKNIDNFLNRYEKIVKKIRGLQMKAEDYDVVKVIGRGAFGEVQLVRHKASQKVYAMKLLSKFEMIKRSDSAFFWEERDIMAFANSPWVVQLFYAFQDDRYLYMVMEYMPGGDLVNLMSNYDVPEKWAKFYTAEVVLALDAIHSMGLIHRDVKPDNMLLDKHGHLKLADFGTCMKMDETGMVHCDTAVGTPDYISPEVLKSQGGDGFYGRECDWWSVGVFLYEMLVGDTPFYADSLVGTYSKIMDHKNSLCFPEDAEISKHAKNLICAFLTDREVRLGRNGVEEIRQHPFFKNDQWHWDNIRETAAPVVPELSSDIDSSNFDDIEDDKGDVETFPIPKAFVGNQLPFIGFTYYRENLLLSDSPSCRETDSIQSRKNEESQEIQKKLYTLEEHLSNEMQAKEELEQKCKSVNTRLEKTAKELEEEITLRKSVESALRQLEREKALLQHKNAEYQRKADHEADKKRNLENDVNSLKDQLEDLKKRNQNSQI

SMILES | IC50 [1] [µM] | IC50 [2] [µM]
COc1ccc2c(c1)C(=O)N[C@@H](Cc1ccc(-c3ccnc(N)c3)cc1)C(=O)N2C [Compound 3, (S)-3-(4-(2-aminopyridin-4-yl)benzyl)-7-methoxy-1-methyl-3,4-dihydro-1H-benzo[e][1,4]diazepine-2,5-dione] | 2.4 | > 10
CN1C(=O)[C@@H](Cc2ccc(-c3cn[nH]c3)cc2)NC(=O)c2cc(Cl)ccc21 [Compound 1, (R)-3-(4-(1H-pyrazol-4-yl)benzyl)-7-chloro-1-methyl-3,4-dihydro-1H-benzo[e][1,4]diazepine-2,5-dione] | 1 | > 30
CN1C(=O)[C@@H](Cc2ccc(-c3ccnc(N)c3)cc2)NC(=O)c2cc(Cl)ccc21 [Compound 2, (R)-3-(4-(2-aminopyridin-4-yl)benzyl)-7-chloro-1-methyl-3,4-dihydro-1H-benzo[e][1,4]diazepine-2,5-dione] | 7.1 | > 10
CN1C(=O)[C@H](Cc2ccc(-c3ccnc4[nH]ccc34)cc2)NC(=O)c2cc(Cl)ccc21 [Compound 4, (S)-3-(4-(1H-pyrrolo[2,3-b]pyridin-4-yl)benzyl)-7-chloro-1-methyl-3,4-dihydro-1H-benzo[e][1,4]diazepine-2,5-dione] | 0.25 | 5.1
COc1ccc2c(c1)C(=O)N[C@@H](Cc1ccc(-c3ccnc4[nH]ccc34)cc1)C(=O)N2C [Compound 5, (S)-3-(4-(1H-pyrrolo[2,3-b]pyridin-4-yl)benzyl)-7-methoxy-1-methyl-3,4-dihydro-1H-benzo[e][1,4]diazepine-2,5-dione] | 0.2 | 2.8
